The test system of this experiment is VEGF promoter (luciferase reporter) in Hep3B cells. Briefly: Cell-based assay of VEGF gene transcription (VEGF-Luciferase assay). The settings on record: Hep3B cells stably expressing VEGF-luciferase construct; 100 μM desferoxamine, 18 hours; read-out: IC50 (concentration of compound required to cause a 50% reduction of the luciferase signal). The method, then:
Cell-Based Assay of VEGF Gene Transcription (VEGF-Luciferase Assay).
The activity of compounds is determined by a cell-based reporter assay which uses the hepatoma 3B (Hep3B) cell line.
This assay involves the use of a luciferase reporter gene under the direct control of the VEGF promoter. Induction of the hypoxic response using desferoxamine leads to the transcription of luciferase through activation of the VEGF promoter, which in turn leads to an increase in luciferse activity, which can be measured using most of commercially available luciferase assay kits. Molecules which inhibit the activation of the VEGF promoter can thus be detected.
This assay can be run using a Hep3B cell line which stably expresses the VEGF-luciferase construct.
Hep3B cells (ATCC Ref. No. HB-8064) are plated in 6-well plates at 2.5×10^5 cells/well in 2 mL DMEM/10% FCS and are transfected the following day using Fugene 6 (Roche Biochemicals®). Transfection mixtures per well contain 6 μL Fugene 6 transfection reagent, 1 μg of pxp2-VEGF-luciferase reporter (rat VEGF promoter, NCBI GenBank accession no. U22373, Levy et al., 1995), plus pcDNA3.1(+) Neomycin resistance vector (INVITROGEN). […]
Luciferase activity is measured using the Bright Glo Luciferase Assay System (Promega®, see also technical Manual, Part #TM052, Instructions for Use of Products E2620 and E2650, revised 10/00). […]

Each structure is given as a SMILES string.

For `CCN(CC)c1ccc2cc(-c3nc(-c4ccccc4)cs3)c(=O)oc2c1` [Example 8], the IC50 is under 10 µM.
